What all share (type): in vivo, human
In experiment [1] the test system is HCV. Nature of the experiment: Case report, Example 2: liver enzyme levels in HCV positive after ibogaine HCl. Particulars: person, 14 mg/kg self-administered. As for the experimental part: A person testing positive for HCV and dependent on heroin and methadone self-administered 14 mg/kg of ibogaine HCl. AST was reduced from pretreatment level of 201 to post treatment level of 25. ALT was reduced from pretreatment level of 410 to post treatment level of 50. GGT level was reduced from 155 to 33.

Another experiment concerns HCV RNA genotype 3. Kind of experiment: Case report, Example 4: HCV RNA after ibogaine HCl over 48 hours. The settings on record: total of 27 mg/kg over 48 hours. Here is the method:
A person weighing 160 lbs tested positive HCV RNA genotype 3. RNA IU/mL was 12,600,000. Subject was administered a total of 27 mg/kg of ibogaine HCl over a period of 48 hours in the following regimen: 2 mg/kg, 2 mg/kg, 2 mg/kg, 2 mg/kg, 2 mg/kg, 2 mg/kg, 12 mg/kg, and 3 mg/kg. HCV RNA IU/mL was reduced to 50,100. Prior to ibogaine therapy patient's urine was dark and stool light. Post treatment color of urine and stool were normal.

For experiment [2], the system named is HCV. Nature of the experiment: Case report, Example 1: HCV positive heroin user given ibogaine HCl. Particulars: person, 25 mg/kg. As for the experimental part:
A person diagnosed as HCV positive and using ½ gram of heroin per day was administered 25 mg/kg of ibogaine HCl. Following the administration of ibogaine, heroin use ceased along with swelling of the liver and pain in the area of the liver.

A further experiment concerns HCV RNA genotype 1. Kind of experiment: Case report, Example 3: HCV RNA and liver enzymes after an escalating dose regimen of ibogaine HCl. As for the experimental part:
A person testing positive for HCV RNA genotype 1, administered the following dose regimen of ibogaine HCl. Subject weighed 79 kg. Doses administered were as total doses and not mg/kg. Day 1: 10 mg ibogaine HCl. Day 2: 20 mg ibogaine HCl. Day 3: 20 mg ibogaine HCl. Day 4: 30 mg ibogaine HCl. Day 5: 50 mg ibogaine HCl. Day 6: 75 mg ibogaine HCl. Day 8: 100 mg ibogaine HCl. Day 10: 150 mg ibogaine HCl. Day 14: 300 mg ibogaine HCl. HCV RNA IU/mL was reduced from 780,000 to 644,000. Pretreatment Alkaline Phosphatase was 99, AST was 103 and ALT 195. Post treatment Alkaline Phosphatase 88, AST 89 and ALT 127. An additional 250 mg of ibogaine HCl further reduced HCV RNA IU/mL to 384,000. A final dose within this regimen of 250 mg ibogaine was administered reducing the HCV RNA IU/mL to 154,000.

ibogaine HCl: the “AST post treatment level” value in the experiment with HCV [1] (pretreatment level 201) is recorded as 25. The “ALT post treatment level” value in the experiment on HCV [1] (pretreatment level 410) is on record as 50. Moreover, the “GGT level post treatment” value in the experiment with HCV [1] (reduced from 155) is recorded as 33. For the same substance, in the experiment with HCV RNA genotype 3 (person, 160 lbs, genotype 3, before treatment 12,600,000), the “HCV RNA after treatment” value was 50,100 IU/mL. In addition, the “color of urine and stool post treatment” value in the experiment with HCV RNA genotype 3 (prior to therapy urine dark and stool light) was “normal”. In the experiment with HCV [2], the “pain in the area of the liver following administration” value was “ceased” and the “swelling of the liver following administration” value was “ceased”. For the same substance, the “heroin use following administration” value with HCV [2] (using ½ gram of heroin per day) is “ceased”. For the same substance, the “HCV RNA after an additional dose” value in the experiment with HCV RNA genotype 1 (additional 250 mg after the Day 1-14 regimen, previous level 644,000) is recorded as 384,000 IU/mL. Also, the “HCV RNA after the final dose” value in the experiment on HCV RNA genotype 1 (final dose of 250 mg within the regimen, previous level 384,000) is recorded as 154,000 IU/mL. Further, in the experiment on HCV RNA genotype 1 (person, 79 kg, genotype 1, total doses 10-300 mg on Days 1-14, reduced from 780,000), the “HCV RNA after regimen” value is on record as 644,000 IU/mL. In addition, in the experiment with HCV RNA genotype 1 (person, genotype 1, Day 1-14 regimen, pretreatment 99), the “Alkaline Phosphatase post treatment” value came to 88. In addition, the AST post treatment in the experiment with HCV RNA genotype 1 (person, genotype 1, Day 1-14 regimen, pretreatment 103) is 89. Moreover, the ALT post treatment in the experiment on HCV RNA genotype 1 (person, genotype 1, Day 1-14 regimen, pretreatment 195) is 127.

The values are drawn from patent US20060229293A1, “Compositions for the treatment of hepatitis C and methods for using compositions for the treatment of hepatitis C” (Addiction Research Institute, Inc., priority 2005, published 2006).
